Test results as given in patent US9720000B2, “Targeted identification of immunogenic peptides” (The Henry M. Jackson Foundation for the Advancement of …, priority 2005, dated 2017).

Tests used:
Assay type in all cases: cell-based
[1] = biological target: T1, HLA-A2 (Homo sapiens, UniProt P04439, D140Y/D185E/D98H/E176V/E277Q/G131W/G231S/I119V/I121R/I166T/I218V/L300P/L318F/N151K/N90K/P208A/P217A/Q86G/Q94H/R138H/R169H/T345S); test: T2 HLA-stabilization (peptide-binding) assay by flow cytometry; conditions: peptide incubated with T2 cells (25 μg per FIG. 5)
T1 construct: endogenous in cells; host or cells: T2 cells
Method: FIG. 5 depicts a T2 Peptide-binding assay, in which 25 μg of peptide were incubated with T2 cells, levels of HLA-A2 levels were measured by flow cytometry and are indicated as Mean Fluorescence Intensity units.
(§1) T2 HLA-stabilization assays were performed to confirm HLA-A2 binding activity of Her577 by flow cytometry. PBMC from 9 healthy donors were stimulated with Her577 and tested in ^51Cr-release cytotoxicity (CTX) assays against 3 HER2/neu-expressing tumor cell lines.

[2] = tested on: LNCaP tumor cells; test: 51Cr-release cytotoxicity (CTX) assay with peptide-stimulated CTL against LNCaP; conditions: for average specific CTX (% lysis) against LNCaP: peptide-stimulated CTL from healthy donor PBMC, LNCaP (HLA-A2+), n = 2
Method: as §1

[3] = tested on: SKOV-3 tumor cells; test: 51Cr-release cytotoxicity (CTX) assay with peptide-stimulated CTL against SKOV-3; conditions: for average specific CTX (% lysis) against SKOV-3: peptide-stimulated CTL from healthy donor PBMC, SKOV-3 (HLA-A3+), n = 2
Method: as §1

[4] = tested on: MCF-7 tumor cells; test: 51Cr-release cytotoxicity (CTX) assay with peptide-stimulated CTL against MCF-7; conditions: for average specific CTX (% lysis) against MCF-7: peptide-stimulated CTL from healthy donor PBMC, MCF-7 (HLA-A2+), n = 5
Method: as §1

[5] = Her577-stimulated CTL, targets pre-treated with Tz at 50 μg/ml for 24 h, P=0.19

Row | mean fluorescence intensity (HLA-A2 level on T2 cells) [1] | Substance | average specific CTX (% lysis) against LNCaP [2] | average specific CTX (% lysis) against SKOV-3 [3] | average specific CTX (% lysis) against MCF-7 [4] | increase in specific CTX versus untreated LNCaP [2, 5] | increase in specific CTX versus untreated SKOV-3 [3, 5] | increase in specific CTX versus untreated MCF-7 [4, 5]
1 | 682 | GP2: immunogenic peptide from HER2/neu (IISAVVGIL) [reference compound] | 26 ± 9 % lysis | 46 ± 5 % lysis | 48 ± 1 % lysis |  |  | 
2 | 1275 | Her577: peptide Her577 (aa; 577-585) within the Ab-binding site of trastuzumab on HER2/neu (FGPEADQCV) | 30 ± 3 % lysis | 49 ± 28 % lysis | 45 ± 3 % lysis | 83% | 47% | 16%
